The NIST ThermoML archive (doi:10.1021/je100861u)
± gives the expanded uncertainty stated by the source.

Columns and labels:
[1] = Liquid; Distillation
[2] = refractive index (Na D-line) (dimensionless); conditions: 293.15 K; 101.33 kPa; Liquid; Standard Abbe refractometry

CC(=O)C(C)O (centres undefined) [2,3-butanolone]
Normal boiling temperature [1]: 148.38 ± 0.54 °C | refractive index [2]: 1.4198 ± 0.0008

CCCCOC(C)=O [butyl ethanoate]
Normal boiling temperature [1]: 125.96 ± 0.5 °C | refractive index [2]: 1.3941 ± 0.0007
